Experiment: Appearance of formulation (state at 25° C.)
Assay type: physicochemical
Details: 25° C.; components (A) and (B) at the compounding molar ratio shown
Description: Formulations 1 to 427 shown in Tables 1A to 1D were prepared by the above-described method using the components (A) and (B) at the compounding molar ratios shown in the tables, and their states at 25° C. were observed.

SMILES | state at 25° C.
CCCCC/C=C\C/C=C\CCCCCCCC(=O)O.CCCCC/C=C\C/C=C\CCCCCCCC(=O)O.N[C@@H](Cc1cnc[nH]1)C(=O)O [Formulation 113] | Solid
N[C@@H](Cc1cnc[nH]1)C(=O)O.O=C(O)CCCCC(=O)O.O=C(O)CCCCC(=O)O [Formulation 116] | Solid
N[C@@H](Cc1c[nH]cn1)C(=O)O.O=C(O)C[C@H](O)C(=O)O.O=C(O)C[C@H](O)C(=O)O [Formulation 120] | Solid
N[C@@H](Cc1c[nH]cn1)C(=O)O.O=C(O)C(O)C(O)C(=O)O.O=C(O)C(O)C(O)C(=O)O [Formulation 122] | Solid
N[C@@H](Cc1c[nH]cn1)C(=O)O.O=C(O)c1ccccc1.O=C(O)c1ccccc1 [Formulation 123] | Solid
N[C@@H](Cc1c[nH]cn1)C(=O)O.O=C(O)/C=C/c1ccccc1.O=C(O)/C=C/c1ccccc1 [Formulation 124] | Solid
N[C@@H](Cc1c[nH]cn1)C(=O)O.O=C1O[C@H]([C@@H](O)CO)C(O)=C1O.O=C1O[C@H]([C@@H](O)CO)C(O)=C1O [Formulation 125] | Solid
CC(=O)O.NCC(=O)O [Formulation 128] | Solid
CCC(=O)O.NCC(=O)O [Formulation 129] | Solid
CCCCCC(=O)O.NCC(=O)O [Formulation 130] | Solid
CCCC(=O)O.NCC(=O)O [Formulation 131] | Solid
CCCCCCCC/C=C\CCCCCCCC(=O)O.NCC(=O)O [Formulation 133] | Solid
CCCCC/C=C\C/C=C\CCCCCCCC(=O)O.NCC(=O)O [Formulation 134] | Solid
NCC(=O)O.O=C(O)[C@H](O)[C@@H](O)[C@H](O)[C@H](O)CO [Formulation 135] | Solid
CC(O)C(=O)O.NCC(=O)O (stereo not shown) [Formulation 136] | Solid
NCC(=O)O.O=C(O)CCCCC(=O)O [Formulation 137] | Solid
NCC(=O)O.O=C(O)CCC(=O)O [Formulation 138] | Solid
NCC(=O)O.N[C@@H](CCC(=O)O)C(=O)O [Formulation 139] | Solid
NCC(=O)O.O=C(O)/C=C/C(=O)O [Formulation 140] | Solid
NCC(=O)O.O=C(O)C[C@H](O)C(=O)O [Formulation 141] | Solid
NCC(=O)O.O=C(O)C(O)C(O)C(=O)O (stereo not shown) [Formulation 143] | Solid
NCC(=O)O.O=C(O)c1ccccc1 [Formulation 144] | Solid

SMILES | state at 25° C.
NCC(=O)O.O=C1O[C@H]([C@@H](O)CO)C(O)=C1O [Formulation 145] | Solid
NCC(=O)O.O=C1O[C@H]([C@H](O)CO)C(O)=C1O [Formulation 146] | Solid
C[C@H](N)C(=O)O.O=CO [Formulation 147] | Solid
CC(=O)O.C[C@H](N)C(=O)O [Formulation 148] | Solid
CCC(=O)O.C[C@H](N)C(=O)O [Formulation 149] | Solid
CCCCCC(=O)O.C[C@H](N)C(=O)O [Formulation 150] | Solid
CCCC(=O)O.C[C@H](N)C(=O)O [Formulation 151] | Solid
CCCCCCCC/C=C\CCCCCCCC(=O)O.C[C@H](N)C(=O)O [Formulation 153] | Solid
CCCCC/C=C\C/C=C\CCCCCCCC(=O)O.C[C@H](N)C(=O)O [Formulation 154] | Solid
C[C@H](N)C(=O)O.O=C(O)C(O)C(O)C(O)C(O)CO (stereo not shown) [Formulation 155] | Solid
CC(O)C(=O)O.C[C@H](N)C(=O)O (stereo not shown) [Formulation 156] | Solid
C[C@H](N)C(=O)O.O=C(O)CCCCC(=O)O [Formulation 157] | Solid
C[C@H](N)C(=O)O.O=C(O)CCC(=O)O [Formulation 158] | Solid
C[C@H](N)C(=O)O.N[C@@H](CCC(=O)O)C(=O)O [Formulation 159] | Solid
C[C@H](N)C(=O)O.O=C(O)/C=C/C(=O)O [Formulation 160] | Solid
C[C@H](N)C(=O)O.O=C(O)C[C@H](O)C(=O)O [Formulation 161] | Solid
C[C@H](N)C(=O)O.O=C(O)CC(O)(CC(=O)O)C(=O)O [Formulation 162] | Solid
C[C@H](N)C(=O)O.O=C(O)C(O)C(O)C(=O)O (stereo not shown) [Formulation 163] | Solid
C[C@H](N)C(=O)O.O=C(O)c1ccccc1 [Formulation 164] | Solid
C[C@H](N)C(=O)O.O=C1O[C@H]([C@@H](O)CO)C(O)=C1O [Formulation 165] | Solid
C[C@H](N)C(=O)O.O=C1O[C@H]([C@H](O)CO)C(O)=C1O [Formulation 166] | Solid
NCCCC(=O)O.O=CO [Formulation 167] | Solid

SMILES | state at 25° C.
CC(=O)O.NCCCC(=O)O [Formulation 168] | Solid
CCC(=O)O.NCCCC(=O)O [Formulation 169] | Solid
CCCCCC(=O)O.NCCCC(=O)O [Formulation 170] | Solid
CCCC(=O)O.NCCCC(=O)O [Formulation 171] | Solid
CCCCC/C=C\C/C=C\CCCCCCCC(=O)O.NCCCC(=O)O [Formulation 174] | Solid
NCCCC(=O)O.O=C(O)CCCCC(=O)O [Formulation 177] | Solid
NCCCC(=O)O.O=C(O)CCC(=O)O [Formulation 178] | Solid
NCCCC(=O)O.N[C@@H](CCC(=O)O)C(=O)O [Formulation 179] | Solid
NCCCC(=O)O.O=C(O)/C=C/C(=O)O [Formulation 180] | Solid
NCCCC(=O)O.O=C(O)C[C@H](O)C(=O)O [Formulation 181] | Solid
NCCCC(=O)O.O=C(O)C(O)C(O)C(=O)O (stereo not shown) [Formulation 183] | Solid
NCCCC(=O)O.O=C(O)c1ccccc1 [Formulation 184] | Solid
NCCCC(=O)O.O=C1O[C@H]([C@@H](O)CO)C(O)=C1O [Formulation 185] | Solid
NCCCC(=O)O.O=C1O[C@H]([C@H](O)CO)C(O)=C1O [Formulation 186] | Solid
CC(C)[C@H](N)C(=O)O.O=CO [Formulation 187] | Solid
CC(=O)O.CC(C)[C@H](N)C(=O)O [Formulation 188] | Solid
CC(C)[C@H](N)C(=O)O.CCC(=O)O [Formulation 189] | Solid
CC(C)[C@H](N)C(=O)O.CCCCCC(=O)O [Formulation 190] | Solid
CC(C)[C@H](N)C(=O)O.CCCC(=O)O [Formulation 191] | Solid
CC(C)[C@H](N)C(=O)O.O=C(O)[C@H](O)[C@@H](O)[C@H](O)[C@H](O)CO [Formulation 192] | Solid
CC(C)[C@H](N)C(=O)O.CC(O)C(=O)O [Formulation 193] | Solid
CC(C)[C@H](N)C(=O)O.O=C(O)CCCCC(=O)O [Formulation 194] | Solid

SMILES | state at 25° C.
CC(C)[C@H](N)C(=O)O.O=C(O)CCC(=O)O [Formulation 195] | Solid
CC(C)[C@H](N)C(=O)O.N[C@@H](CCC(=O)O)C(=O)O [Formulation 196] | Solid
CC(C)[C@H](N)C(=O)O.O=C(O)/C=C/C(=O)O [Formulation 197] | Solid
CC(C)[C@H](N)C(=O)O.O=C(O)C[C@H](O)C(=O)O [Formulation 198] | Solid
CC(C)[C@H](N)C(=O)O.O=C(O)CC(O)(CC(=O)O)C(=O)O [Formulation 199] | Solid
CC(C)[C@H](N)C(=O)O.O=C(O)C(O)C(O)C(=O)O (stereo not shown) [Formulation 200] | Solid
CC(C)[C@H](N)C(=O)O.O=C(O)c1ccccc1 [Formulation 201] | Solid
CC(C)[C@H](N)C(=O)O.O=C1O[C@H]([C@@H](O)CO)C(O)=C1O [Formulation 202] | Solid
CC(C)[C@H](N)C(=O)O.O=C1O[C@H]([C@H](O)CO)C(O)=C1O [Formulation 203] | Solid
CC(C)C[C@H](N)C(=O)O.O=CO [Formulation 204] | Solid
CC(=O)O.CC(C)C[C@H](N)C(=O)O [Formulation 205] | Solid
CC(C)C[C@H](N)C(=O)O.CCC(=O)O [Formulation 206] | Solid
CC(C)C[C@H](N)C(=O)O.CCCCCC(=O)O [Formulation 207] | Solid
CC(C)C[C@H](N)C(=O)O.CCCC(=O)O [Formulation 208] | Solid
CC(C)C[C@H](N)C(=O)O.O=C(O)[C@H](O)[C@@H](O)[C@H](O)[C@H](O)CO [Formulation 209] | Solid
CC(C)C[C@H](N)C(=O)O.CC(O)C(=O)O [Formulation 210] | Solid
CC(C)C[C@H](N)C(=O)O.O=C(O)CCCCC(=O)O [Formulation 211] | Solid
CC(C)C[C@H](N)C(=O)O.O=C(O)CCC(=O)O [Formulation 212] | Solid
CC(C)C[C@H](N)C(=O)O.N[C@@H](CCC(=O)O)C(=O)O [Formulation 213] | Solid
CC(C)C[C@H](N)C(=O)O.O=C(O)/C=C/C(=O)O [Formulation 214] | Solid
CC(C)C[C@H](N)C(=O)O.O=C(O)C[C@H](O)C(=O)O [Formulation 215] | Solid
CC(C)C[C@H](N)C(=O)O.O=C(O)CC(O)(CC(=O)O)C(=O)O [Formulation 216] | Solid
